Laboratory results as given in publication PMC6201879, “N-substituted phenylbenzamides of the niclosamide chemotype attenuate obesity related changes in high fat diet fed mice” (PLoS ONE, 2018).
pIC50: −log10 of the molar value. Where “and” joins values, the source holds several entries; their conditions need not be identical. Equal values may be shown once. Entries after “also recorded” stand apart in the source; their conditions may differ. Read-outs that look alike come from different tables or passages of the source.

Experiments:
PH5CH8 liver cells = experiment: High-throughput hepatic de novo lipogenesis (DNL) assay, high content imaging of steatotic phenotype; type: cell-based, human; details: for IC50: PH5CH8 liver cells, 10-point dose response between 1μM and 1.9nM, read-out: IC50 (uM), inhibition of steatotic phenotype in DNL assay; for pIC50: read-out: IC50
[1] = tested on: Phosphorylated AMPK (Thr-172); experiment: High-throughput phosphorylated AMPK (Thr-172) TR-FRET assay in HepG2 cells; type: cell-based, human; details: HepG2 TR-FRET dose response between 0.625 and 10 μM, 4 hours; also Western blot
Method: Phosphorylated AMPK (Thr-172) TR-FRET Assay Kit was purchased from CisBio (Bedford MA). HepG2 [HB-8065] cells were trypsinized, harvested and counted using Countess II FL automated cell counter (Thermo Fisher Scientific). Cells were then seeded in Poly-D-Lysine coated 96-well black optical plates at a concentration of 10,000 cells per well in 50μL growth medium. After 24-hours, the media was removed and replaced with 50μL of fresh growth media containing compounds. Five concentrations of each compound were prepared, ranging from 10 to 0.625 μM and applied to columns 2–11 of the cell plate. Control wells contained DMSO (column 1-minimum response control) or 500199 (column 12-maximum response control). The final DMSO concentration was 0.45%. Cells were cultured for 4 hours before cells were lysed in 50μL of lysis buffer for 30 minutes at room temperature according to assays protocol. Following lysis, 16μL of lysate was transferred to white 384 well small volume assay plate and 4μL of antibody dyes were added per assay protocol.
Following overnight incubation, quantitation was performed on a PHERAstar (BMG), using the HTRF protocol with an excitation wavelength of 337nm and emission wavelengths of 665nm and 620nm. The ratio between emission spectra (665/620) was assessed for each well individually and averaged for triplicate samples. Data are presented as mean ratio ± SE. The differences between the control (DMSO) and the compound treated wells were analyzed using two-way ANOVA and Dunnett’s post hoc test. A value of p<0.05 was considered to be significant.
Fig 5 Validation of AMPK pathway activation by phenylbenzamide derivatives in HepG2 cells. A) Cells were seeded at 10,000 cells per well 24 hours prior to treating cells with indicated concentration of compound or DMSO (CTL) for 4 hours. 16μL of cell lysate was incubated with HTRF phospho-AMPK detection reagents and fluorescence emission read at 665nm and 620nm using a PHERAstar platereader. The mean and standard deviation of the HTRF Ratio from three replicate wells is shown. The unstimulated (DMSO) and positive controls lysates are shown in green and red respectively.

[2] = tested on: HEK293 cells stably transduced with the human OCT3 transporter; experiment: Cellular oxygen consumption rate (OCR), MitoXpress Xtra; type: cell-based; details: HEK293 cells expressing human OCT3; for change in respiration / oxygen consumption rate (OCR): compared to DMSO control, 2 hours; for concentration dependence of OCR change: four concentrations
Method: Oxygen consumption rate experiments were performed by ZenBio, Inc (RTP, NC). HEK293 cells stably transduced with the human OCT3 transporter were plated in black-walled microclear plates (Greiner-BioOne) at 60,000 cells per well in growth medium. Cells were incubated overnight to allow attachment before growth medium was removed and replaced with 150μL of assay medium containing compound dilutions. Four concentrations of each compound were prepared and transferred to the empty wells. Control wells contained assay medium only or assay medium containing […] (FCCP) at 1μM. Ten μL of MitoXpress Xtra reagent was added to each test well and 100μL of pre-warmed mineral oil was overlaid in each well to create a seal. The plates were immediately read on a FLUOstar Omega (BMG) using dual read Time Resolved Fluorescence (TR-F) for 2 hours, with measurements taken every 2 minutes using 340nm and 650nm as excitation and emission wavelengths respectively. For lifetime analysis, two measurements per well were taken: 1) delay of 30μs, with a window of 30μs; and 2) delay of 70μs with a window of 30μs. Background TRF values were subtracted from all readings. A ratiometric analysis was performed to determine changes in the Lifetime fluorescence signal: Lifetime (μs)[T] = (D2-D1)/ln(W1/W2), where D is delay; W is fluorescence window value at each time point. Lifetime slopes were calculated using each Lifetime measurement over time. Data are presented as mean ± standard error (SE). The differences between the control (DMSO) and compound treated wells were analyzed using the Student’s t-test. A value of p≤0.05 was considered statistically significant. […]

[3] = tested on: Salmonella typhimurium TA98; experiment: Ames assay, strain TA98; details: Positive Control chemical; concentration not given; without S9
[4] = tested on: Salmonella typhimurium TA1537; details: Positive Control chemical; concentration not given; without S9
[5] = tested on: Salmonella typhimurium TA100; details: Positive Control chemical; concentration not given; without S9
[6] = tested on: Salmonella typhimurium TA1535; details: Positive Control chemical; concentration not given; without S9
[7] = tested on: phospho-AMPK Thr-172 (p-AMPK); experiment: Western blot of phospho-AMPK Thr-172 in HEK293T cells; type: cell-based, human; details: 1 and 10μM, negatives re-screened at 5 and 20 μM, 3 hours
Method: AMPK is a metabolic sensor that maintains cellular energy supply. As validation of these changes in lipid metabolism and cellular respiration we evaluated phospho-AMPK Thr-172 (p-AMPK) levels by Western blot in HEK293 cells treated with the phenylbenzamide derivatives. Compounds were screened at 1 and 10μM using the known uncouplers niclosamide and FCCP as positive controls (Fig 4A). […] We concluded that compounds that had little effect on oxygen consumption rates also had little effect on phosphorylation of AMPK.

[8] = Metabolic stability in human liver microsomes; type: in vitro ADME
Method: (§1) Three experiments were performed with 1) 0.5mg/ml microsomes and 1mM NADPH, 2) 0.5mg/ml microsomes without NADPH and 3) 0.5mg/ml heat inactivated microsomes without NADPH in 100mM phosphate buffer, containing 5mM magnesium chloride. […] At the indicated time points, 50μl samples were removed and stopped by addition of 4 volumes of cold acetonitrile with internal standards, 100nM alprazolam, 200nM labetalol and 2μM ketoprofen. The samples were centrifuged at 3,220 g for 40 minutes and aliquots of 100μl were subsequently diluted with 100μl of ultra-pure water and analyzed by LC/MS/MS using a (Shimadzu corporation) LC system coupled to a Shimadzu Triple Quad 5500 mass spectrometer with an ESI interface. The LC system used a Waters XSelect HSS T3 C18, 2.5μm, 2.1 x 50 mm column eluted with one of two methods using mobile phases A (water, 0.1% formic acid) and B (acetonitrile, 0.1% formic acid). […] The Shimadzu Triple Quad 5500 MS was operated with the following parameters: Ion source: Turbo spray; Ionization mode: ESI; Scan type: MRM; Collision gas: 10 L/min; Curtain gas: 30 L/min; Nebulize gas: 50 L/min; Auxiliary gas: 50 L/min; Temperature: 500°C; Ionspray voltage: +5500 V (positive MRM). All experiments were performed in duplicate. Data were analyzed using Microsoft excel, and peak areas were determined from extracted ion chromatograms.

[9] = Metabolic stability in mouse liver microsomes; type: in vitro ADME; details: 60 min
Method: as §1

[10] = S1 Table, SAR for N-Substituted Phenylbenzamides
[11] = Homo sapiens, S1 Table, SAR for N-Substituted Phenylbenzamides
[12] = 0.5mg/ml microsomes and 1mM NADPH
[13] = 0.5mg/ml microsomes without NADPH
[14] = heat inactivated microsomes without NADPH

CCC/C=C/C/C=C/C=C/C=N/NN=O [Triacsin C, reference compound]
reduced steatosis (steatotic phenotype in DNL assay) (PH5CH8 liver cells; PH5CH8, assay validation): 92 ± 19%

O=C(Nc1ccc(Br)cc1Cl)c1cc(Cl)ccc1O [Compound 500832, N-(4-Bromo-2-chlorophenyl)-5-chloro-2-hydroxybenzamide]
phosphorylation of AMPK (Figs 5 and 4D) [1]: stimulated phosphorylation of AMPK | change in respiration / oxygen consumption rate (OCR) [2]: significant changes | concentration dependence of OCR change [2]: only significantly elevated at 1μM | IC50 (PH5CH8 liver cells; Homo sapiens): 0.08 µM | pIC50 (PH5CH8 liver cells; Homo sapiens, S1 Table. SAR for N-Substituted Phenylbenzamides): 7.69 | Active/Inactive (PH5CH8 liver cells; S1 Table. SAR for N-Substituted Phenylbenzamides): Active

COC(=O)c1ccc(NC(=O)c2cc(Cl)ccc2O)c(Cl)c1 [Compound 500189, Methyl 3-chloro-4-[(5-chloro-2-hydroxybenzene)amido]benzoate]
Active/Inactive (PH5CH8 liver cells; [10]): Inactive

COC(=O)c1ccc(NC(=O)c2cc(C(F)(F)F)ccc2O)c(Br)c1 [Compound 600653, Methyl 4-(2-hydroxy-5-[trifluoromethyl]benzamido)-3-bromobenzoate]
phosphorylation of AMPK (Figs 5 and 4D) [1]: stimulated phosphorylation of AMPK | change in respiration / oxygen consumption rate (OCR) [2]: significant changes | concentration dependence of OCR change [2]: dose dependent increase in OCR | IC50 (PH5CH8 liver cells; Homo sapiens): 0.27 µM | pIC50 (PH5CH8 liver cells; [11]): 6.57 | Active/Inactive (PH5CH8 liver cells; [10]): Active

O=[N+]([O-])c1ccc2c(c1)Cc1ccccc1-2 [Compound 2-NF, 2-nitrofluorene, reference compound]
Mean Revertant Colony Counts TA98 S9- [3]: 210.0 and 258.7

COC(=O)c1ccc(NC(=O)c2cc(C)ccc2O)c(Cl)c1 [Compound 500828, Methyl 3-chloro-4-[(2-hydroxy-5-methylbenzene)amido]benzoate]
Active/Inactive (PH5CH8 liver cells; [10]): Active | pIC50 (PH5CH8 liver cells; [10]): 5.77

N#CC(C#N)=NNc1ccc(OC(F)(F)F)cc1 [FCCP, carbonyl cyanide-p-trifluoromethoxyphenylhydrazone, reference compound]
change in respiration / oxygen consumption rate (OCR) [2]: increased OCR

COC(=O)c1ccc(NC(=O)c2cc(C(F)(F)F)ccc2O)c(C)c1 [Compound 600655, Methyl 4-(2-hydroxy-5-[trifluoromethyl]benzamido)-3-methylbenzoate]
phosphorylation of AMPK (Figs 5 and 4D) [1]: stimulated phosphorylation of AMPK | change in respiration / oxygen consumption rate (OCR) [2]: significant changes | concentration dependence of OCR change [2]: dose dependent increase in OCR | IC50 (PH5CH8 liver cells; Homo sapiens): 0.03 µM | pIC50 (PH5CH8 liver cells; [11]): 9.60 | Active/Inactive (PH5CH8 liver cells; [10]): Active

COC(=O)c1ccc(NC(=O)c2cc(C(F)(F)F)ccc2O)c(Cl)c1 [Compound 500844, Methyl 3-chloro-4-{[2-hydroxy-5-(trifluoromethyl)benzene]amido}benzoate]
Active/Inactive (PH5CH8 liver cells; [10]): Active | pIC50 (PH5CH8 liver cells; [10]): 7.15

COc1ccc2nc3cc(Cl)ccc3c(NCCCNCCCl)c2c1 [ICR-191, reference compound]
Mean Revertant Colony Counts TA-1537 S9- [4]: 72.3 and 73.0

[N-]=[N+]=[N-].[Na+] [SA, Sodium Azide, reference compound]
Mean Revertant Colony Counts TA-100 S9- [5]: 133.7 and 120.0 | Mean Revertant Colony Counts TA-1535 S9- [6]: 103.3

COc1ccc(O)c(C(=O)Nc2ccc(C(=O)O)cc2C)c1 [Compound 600657, 4-(2-Hydroxy-5-methoxybenzamido)-3-methylbenzoic Acid]
phosphorylation of AMPK (p-AMPK Thr-172) by Western blot [7]: no detectable changes in pAMPK levels | change in respiration / oxygen consumption rate (OCR) [2]: no change in respiration; also recorded: did not appear to stimulate phosphorylation of AMPK or increase oxygen consumption rate | Active/Inactive (PH5CH8 liver cells; [10]): Active

COC(=O)c1ccc(NC(=O)c2cccc(C(C)(C)C)c2O)c(Cl)c1 [Compound 600489, Methyl 4-(3-tert-butyl-2-hydroxybenzamido)-3-chlorobenzoate]
Remaining Percentage of 60 min (%), Human, Tested Sample [8, 12]: 3.1% | Remaining Percentage of 60 min (%), Human, Negative Control [8, 13]: 3.8% | microsomal stability ([8]; HLM and MLM, 60 min): completely degraded | Remaining Percentage of 60 min (%), Human, Heat-inactivated Control [8, 14]: 66.6% | phosphorylation of AMPK (p-AMPK Thr-172) by Western blot [7]: stimulated phosphorylation of AMPK only at the highest concentration | change in respiration / oxygen consumption rate (OCR) [2]: no change in respiration; also recorded: no effect on oxygen consumption rate | IC50 (PH5CH8 liver cells; Homo sapiens): 0.01 µM | pIC50 (PH5CH8 liver cells; [11]): 7.85 | Active/Inactive (PH5CH8 liver cells; [10]): Active | Remaining Percentage of 60 min (%), Mouse, Tested Sample [9, 12]: 2.7% | Remaining Percentage of 60 min (%), Mouse, Negative Control [9, 13]: 4.1% | Remaining Percentage of 60 min (%), Mouse, Heat-inactivated Control [9, 14]: 57.6%
